Laboratory results from ChEMBL document CHEMBL3301562, “MMV Box screening against Plasmodium falciparum protein kinases and aminoacyl tRNA synthetases”.

Legend:
Assay type in all cases: functional
Proline--tRNA ligase = molecular target: T1, Proline--tRNA ligase (Plasmodium falciparum (isolate 3D7), UniProt Q8I5R7); test: MMV: ProRS recombinant Plasmodium falciparum Prolyl-tRNA-synthetase, assay with yeast tRNA, ATP, and proline and 3 uM MMV malaria box compound, assay read out with kinase glo as % inhibition.
T1 sequence (Q8I5R7 whole entry): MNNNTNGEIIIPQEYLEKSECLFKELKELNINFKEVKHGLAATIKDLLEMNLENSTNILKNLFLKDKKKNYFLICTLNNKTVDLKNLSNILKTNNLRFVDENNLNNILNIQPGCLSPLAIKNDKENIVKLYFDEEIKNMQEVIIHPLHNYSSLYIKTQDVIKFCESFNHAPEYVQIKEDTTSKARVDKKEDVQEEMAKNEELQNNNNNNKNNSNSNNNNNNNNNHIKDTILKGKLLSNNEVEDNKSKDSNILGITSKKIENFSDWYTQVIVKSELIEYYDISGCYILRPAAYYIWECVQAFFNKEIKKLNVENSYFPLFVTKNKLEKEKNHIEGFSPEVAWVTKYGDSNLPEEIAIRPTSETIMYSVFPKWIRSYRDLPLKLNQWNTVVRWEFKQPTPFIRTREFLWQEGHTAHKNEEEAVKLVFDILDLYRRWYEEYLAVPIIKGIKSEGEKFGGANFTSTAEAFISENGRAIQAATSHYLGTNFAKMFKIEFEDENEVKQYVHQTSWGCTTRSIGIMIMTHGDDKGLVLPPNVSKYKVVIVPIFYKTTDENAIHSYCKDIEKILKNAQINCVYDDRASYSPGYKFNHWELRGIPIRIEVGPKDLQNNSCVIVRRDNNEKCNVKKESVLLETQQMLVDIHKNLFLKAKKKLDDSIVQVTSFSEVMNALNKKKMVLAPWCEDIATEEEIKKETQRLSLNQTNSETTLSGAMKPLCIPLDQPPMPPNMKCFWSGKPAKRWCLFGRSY

[1] = molecular target: T2, Mitogen-activated protein kinase (Plasmodium falciparum, UniProt Q25917); test: Final concentrations were 1 uM ATP, 0.5 mM DTT, 1 mM MgCl2, 0.5 mg/mL BSA, and 10 ug/ml MAP2 in a buffer of 50 mM HEPES (pH 7.0). 0.5 mg/mL histone III-S served as the substrate (13); 100 uM AMP-PNP, an ATP analog, was used as a control inhibitor. Incubation time was 4 hours.
T2 sequence (Q25917 whole entry): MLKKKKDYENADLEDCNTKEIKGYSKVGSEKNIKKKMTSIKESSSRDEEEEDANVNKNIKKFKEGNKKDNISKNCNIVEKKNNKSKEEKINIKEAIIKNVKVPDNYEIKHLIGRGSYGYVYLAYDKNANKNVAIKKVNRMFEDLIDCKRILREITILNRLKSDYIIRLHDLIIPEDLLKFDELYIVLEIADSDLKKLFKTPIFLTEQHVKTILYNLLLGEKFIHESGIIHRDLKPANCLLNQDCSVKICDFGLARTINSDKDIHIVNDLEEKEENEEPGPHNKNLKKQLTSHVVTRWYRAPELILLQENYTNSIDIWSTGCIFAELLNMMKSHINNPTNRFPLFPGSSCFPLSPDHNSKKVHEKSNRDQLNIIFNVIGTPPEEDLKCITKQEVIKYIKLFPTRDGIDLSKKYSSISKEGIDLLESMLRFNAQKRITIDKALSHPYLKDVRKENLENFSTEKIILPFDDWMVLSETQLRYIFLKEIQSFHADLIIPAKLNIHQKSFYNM

Lysine--tRNA ligase = Lysine--tRNA ligase (Plasmodium falciparum (isolate 3D7), UniProt Q8IDJ8); test: MMV: KRS recombinant Plasmodium falciparum Lysyl-tRNA-synthetase, assay with yeast tRNA, ATP, and lysine and 3 uM MMV malaria box compound, assay read out with kinase glo as % inhibition.
[2] = molecular target: T3, Cdk-related protein kinase 6 (Plasmodium falciparum, UniProt O77239); test: Final concentrations were 1.5 uM ATP, 5 mM MnCl2, and 15 ug/ml PK6 in a buffer of 100 mM Tris-HCl (pH 7.5). 50 ug/mL MBP was provided as the substrate; 10 uM staurosporine was used as a control inhibitor. Incubation time was 3 hours and 40 minutes.The catalytic activity of each kinase was considered proportional to ATP consumed, as determined from measurements of residual [ATP] with the luciferase-based reagent Kinase-Glo (Promega) following incubation. Luminescence (proportional to residual [ATP]) was measured on the plate readers FLx800 (BioTek Instruments, Winooski, VT, USA) and MicroBeta2.
T3 sequence (O77239 whole entry): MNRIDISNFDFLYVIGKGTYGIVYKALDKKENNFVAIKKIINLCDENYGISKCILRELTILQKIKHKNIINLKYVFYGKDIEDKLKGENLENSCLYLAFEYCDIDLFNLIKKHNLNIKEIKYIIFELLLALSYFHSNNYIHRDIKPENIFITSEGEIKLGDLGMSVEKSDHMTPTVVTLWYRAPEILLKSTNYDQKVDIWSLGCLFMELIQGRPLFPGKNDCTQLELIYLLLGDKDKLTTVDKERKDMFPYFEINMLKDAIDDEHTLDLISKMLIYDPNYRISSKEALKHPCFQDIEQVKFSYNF

[3] = molecular target: Calcium-dependent protein kinase 1 (Plasmodium falciparum, UniProt P62344); test: MMV: CDPK1 Protein kinase inhibition assay using recombinant PfCDPK1, syntide 2 peptide substrate, ATP and KinaseGlo to measure % inhibition at 1 uM MMV box compound.
[4] = molecular target: T4, Putative uncharacterized protein pk7 (Plasmodium falciparum, UniProt O96214); test: Final concentrations were 1 uM ATP, 2 mM DTT, 20 mM MgCl2, 2 mM MnCl2, 0.01% BSA, and 6 ug/ml PK7, in a buffer of 20 mM Tris-HCl (pH 7.5). The enzyme itself was the only substrate present (since autophosphorylation occurs); 100 uM 1NA-PP1 was used as a control inhibitor. Incubation time was 3 hours.
T4 sequence (O96214 whole entry): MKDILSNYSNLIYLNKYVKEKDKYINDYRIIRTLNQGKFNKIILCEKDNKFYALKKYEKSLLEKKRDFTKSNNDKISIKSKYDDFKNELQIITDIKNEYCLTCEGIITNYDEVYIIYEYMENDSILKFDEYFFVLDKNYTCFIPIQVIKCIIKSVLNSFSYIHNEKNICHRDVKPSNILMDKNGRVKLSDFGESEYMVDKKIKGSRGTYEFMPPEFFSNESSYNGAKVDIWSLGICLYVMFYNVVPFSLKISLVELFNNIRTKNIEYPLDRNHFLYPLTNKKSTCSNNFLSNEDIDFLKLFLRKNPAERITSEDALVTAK

[5] = molecular target: T5, Calcium-dependent protein kinase 4 (Plasmodium falciparum (isolate 3D7), UniProt Q8IBS5); test: MMV: CDPK4 Protein kinase inhibition assay using recombinant PfCDPK4, syntide2 peptide substrate, ATP and KinaseGlo to measure % inhibition at 1 uM MMV box compound.
T5 sequence (Q8IBS5 whole entry): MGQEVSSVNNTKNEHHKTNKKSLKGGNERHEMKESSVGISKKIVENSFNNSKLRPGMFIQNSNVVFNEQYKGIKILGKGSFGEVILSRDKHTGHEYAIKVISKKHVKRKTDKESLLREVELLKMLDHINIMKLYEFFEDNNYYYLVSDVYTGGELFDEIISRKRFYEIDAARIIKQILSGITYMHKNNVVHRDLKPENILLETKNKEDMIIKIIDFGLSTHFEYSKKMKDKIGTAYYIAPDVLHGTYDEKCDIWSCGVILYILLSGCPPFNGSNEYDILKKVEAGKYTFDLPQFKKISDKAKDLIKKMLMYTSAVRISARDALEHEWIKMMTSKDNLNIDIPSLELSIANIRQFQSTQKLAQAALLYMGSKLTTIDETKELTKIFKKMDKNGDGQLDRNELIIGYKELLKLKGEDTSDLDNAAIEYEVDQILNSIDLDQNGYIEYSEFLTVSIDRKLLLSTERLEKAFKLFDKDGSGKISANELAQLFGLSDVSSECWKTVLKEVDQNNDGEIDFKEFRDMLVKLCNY

Sequence of Lysine--tRNA ligase (Q8IDJ8 whole entry): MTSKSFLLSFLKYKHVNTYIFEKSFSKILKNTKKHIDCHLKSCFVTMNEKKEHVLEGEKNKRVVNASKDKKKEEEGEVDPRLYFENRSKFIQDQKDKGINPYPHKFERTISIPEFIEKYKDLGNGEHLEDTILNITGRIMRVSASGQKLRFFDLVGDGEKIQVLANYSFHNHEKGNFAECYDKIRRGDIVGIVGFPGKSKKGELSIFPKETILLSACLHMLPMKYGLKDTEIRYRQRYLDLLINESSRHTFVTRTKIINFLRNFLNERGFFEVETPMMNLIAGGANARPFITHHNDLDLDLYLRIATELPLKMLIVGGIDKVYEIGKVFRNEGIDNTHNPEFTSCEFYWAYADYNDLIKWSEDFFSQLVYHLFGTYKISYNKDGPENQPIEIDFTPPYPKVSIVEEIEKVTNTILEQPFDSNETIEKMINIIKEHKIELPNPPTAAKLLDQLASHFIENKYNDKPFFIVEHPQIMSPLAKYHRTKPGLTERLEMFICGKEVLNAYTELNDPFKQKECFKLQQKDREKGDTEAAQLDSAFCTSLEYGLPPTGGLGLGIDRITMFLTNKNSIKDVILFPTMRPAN
Sequence of Calcium-dependent protein kinase 1 (P62344 whole entry): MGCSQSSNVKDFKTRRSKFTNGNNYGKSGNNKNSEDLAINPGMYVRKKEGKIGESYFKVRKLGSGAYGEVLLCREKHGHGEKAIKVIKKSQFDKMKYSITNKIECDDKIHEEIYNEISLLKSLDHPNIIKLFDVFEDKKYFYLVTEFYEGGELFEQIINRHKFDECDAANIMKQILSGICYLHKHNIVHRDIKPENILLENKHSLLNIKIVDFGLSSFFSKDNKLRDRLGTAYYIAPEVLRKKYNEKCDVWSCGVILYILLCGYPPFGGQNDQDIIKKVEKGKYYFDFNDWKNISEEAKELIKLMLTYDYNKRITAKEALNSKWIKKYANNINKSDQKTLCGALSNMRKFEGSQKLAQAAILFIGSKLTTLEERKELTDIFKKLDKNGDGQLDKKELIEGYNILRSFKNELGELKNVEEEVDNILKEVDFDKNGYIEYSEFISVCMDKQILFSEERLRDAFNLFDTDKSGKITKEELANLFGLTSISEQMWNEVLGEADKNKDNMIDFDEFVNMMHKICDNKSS

Row | Structure (SMILES) | IC50 (Proline--tRNA ligase) [nM] | IC50 [1] [nM] | IC50 (Lysine--tRNA ligase) [nM] | IC50 [2] [nM] | IC50 [3] [nM] | IC50 [4] [nM] | IC50 [5] [nM]
1 | CC(Oc1ccc(NC(=O)c2cccs2)cc1)C(=O)c1ccc(Cl)cc1 (stereo not given) | > 2500 | > 1000 | > 2500 | > 1000 | > 1000 | > 1000 | > 1000
2 | O=C(Nc1cccc(-c2nc3ccccc3[nH]2)c1)c1cccc(NC(=O)c2ccco2)c1 | > 2500 | > 1000 | > 2500 | > 1000 | > 1000 | > 1000 | > 1000
3 | COc1cc(SC)ccc1C(=O)N1CCCC(C)C1 (stereo not given) | > 2500 | > 1000 | > 2500 | > 1000 | > 1000 | > 1000 | > 1000
4 | Cc1ccccc1OCCSc1nc2ccc(NC(=O)c3cccs3)cc2s1 | > 2500 | > 1000 | > 2500 | > 1000 | > 1000 | > 1000 | > 1000
5 | c1ccc(-c2ccc(-c3nc4ccccc4[nH]3)cc2)cc1 | > 2500 | > 1000 | > 2500 | > 1000 | > 1000 | > 1000 | > 1000
6 | Cc1cc(C)c2nc(N3CCC(C(=O)NCCCN4CCC(N5CCCCC5)CC4)CC3)sc2c1 | > 2500 | > 1000 | > 2500 | > 1000 | > 1000 | > 1000 | > 1000
7 | CN1CCN(c2c3c(c(C#N)c4nc5ccccc5n24)CCC3)CC1 | > 2500 | > 1000 | > 2500 | > 1000 | > 1000 | > 1000 | > 1000
8 | Cn1c(C(=O)c2cccc3ccccc23)nc2ccccc21 | > 2500 | > 1000 | > 2500 | > 1000 | > 1000 | > 1000 | > 1000
9 | CC(C)OCc1cc(CN2CCN(c3cccc(Cl)c3)CC2)c(O)c2ncccc12 | > 2500 | > 1000 | > 2500 | > 1000 | > 1000 | > 1000 | > 1000
10 | COc1ccc2c(=O)cc(C(Cl)(Cl)Cl)oc2c1 | > 2500 | > 1000 | > 2500 | > 1000 | > 1000 | > 1000 | > 1000
